Test results: patent US10344330B2, “Glatiramer acetate response biomarker mRNA potency assay” (Mylan Inc., priority 2013, dated 2019)

B1: MBP: myelin basic protein, a negative control (protein, UniProt P02686 1-304, looked up)
Myelin basic protein: MGNHAGKRELNAEKASTNSETNRGESEKKRNLGELSRTTSEDNEVFGEADANQNNGTSSQDTAVTDSKRTADPKNAWQDAHPADPGSRPHLIRLFSRDAPGREDNTFKDRPSESDELQTIQEDSAATSESLDVMASQKRPSQRHGSKYLATASTMDHARHGFLPRHRDTGILDSIGRFFGGDRGAPKRGSGKDSHHPARTAHYGSLPQKSHGRTQDENPVVHFFKNIVTPRTPPPSQGKGRGLSLSRFSWGAEGQRPGFGYGGRASDYKSAHKGFKGVDAQGTLSKIFKLGGRDSRSGSPMARR

How the values were obtained:
[1] = tested on: IL-4 secreted by LN cells; assay: IL-4 secretion by GA-stimulated LN cells, MSD 9-plex ELISA (Example II); format: cell-based, mouse; details: for IL-4 secretion response ratio (treated cell medium to control DCCM1 medium): 21 hr
Procedure: Animals at 8 weeks of age were immunized by injection into four footpads using a 1 mL syringe with a 27-G, 1⁄2-inch needle. […] Ten days post-immunization, immunized animals were sacrificed via cervical dislocation. […] The LN cells were isolated by pressing the LN with the plunger end of a sterile syringe. […] Trypan blue exclusion method was used to determine the cell density of viable cells in the suspension. […] Cat. […] LN cells were plated into a 24-well tissue culture plate for drug stimulation. […] Cell debris was removed by centrifugation at ca. 200×g for 10 minutes at 4° C. Cytokines secreted by treated cells were determined on the day of collection by ELISA using mouse TH 1/TH 2 9-Plex Tissue Culture Kit (Meso Scale Discovery; Cat No. […]-2, Lot #: K0032839) which detects Th1 cytokines (IFN-γ, IL-2, IL-12, IL-1β, TNF-α, CXCL1) and Th2 cytokines (IL-4, IL-5 and IL-10). For IFN-γ, culture media also were assayed at 45 hours using mouse IFN-γ Tissue Culture Kit (Meso Scale Discovery; Cat No. […] For the positive control, 0.5 mL of LN cells (5×10^6 cells/well) were treated with 0.5 mL of ConA (5 μg/mL). For the negative control, 0.5 mL of LN cells (5×10^6 cells/well) were treated with 0.5 mL of MBP (20 μg/mL). The LN cells with mock stimulation (enriched DCCM1 medium) were used to monitor the background level of a cytokine. For the cytokine assays, calibration standards or samples were incubated in the MULTI-SPOT or the SINGLE-SPOT plate and each cytokine bound to its corresponding capture antibody. All test samples were run in duplicate. The amount of each cytokine on its distinct spot was quantified using a cytokine-specific detection antibody labeled with MSD SULFO-TAGTM reagent. Electrochemiluminescent signals from immobilized SULFO-TAGTM-labeled complexes on each spot from each well were captured by the MSD SECTOR Imager 6000, which produces a signal directly proportional to the amount of captured cytokine in a test sample. The levels of cytokines in test samples were derived by interpolation from calibration curves with calibration standards of known concentrations using reagents provided with the MSD kits. Kits were used according to the manufacturer's protocols. […] Data are expressed as a response ratio of cytokine concentration in treated cell medium to control DCCM1 medium.

IL-10 mRNA in LN cells = assay: IL-10 mRNA by real-time PCR in LN cells of GA-immunized CD-1, BALB/cByJ, SJL/J mice (Example III); format: cell-based, mouse; details: 6 hours
Procedure: On Day 0, mice were immunized with 250 μg GA (GMA, Mylan Pharmaceuticals, Inc.) and CFA. The GA solution (20 mg/mL) was diluted with Dulbecco's Phosphate-Buffered Saline to 5 mg/mL. The dosing formulation consisted of equal volumes of the diluted GA solution (5 mg/mL) and CFA solution, mixed until well-emulsified. Animals were weighed and allocated to groups. Animals were dosed by injection into four footpads. The injection volume per animal was 0.1 mL (about 10 μL into each front footpad, and 40 μL into each hind footpad).
Immunized animals were euthanized by cervical dislocation on Day 10 post-immunization. Lymph node cells were isolated from animals and treated with Myelin Basic Protein (MBP, a negative control), Concanavalin A (ConA, a positive control) or GA as shown in Table 16. Lymph nodes in the axillary and popliteal regions were removed aseptically in a purifier clean bench. […] The LN were then washed 3 times with −5 mL of RPMI medium, and isolated by pressing the LN with a syringe plunger. […] The cell suspension was centrifuged at about 200×g for 10 minutes at about 4° C. and re-suspended in ice cold enriched DCCM-1 medium. Cells were seeded in 96-well tissue culture plates.
LN cells isolated from GA-immunized animals were stimulated with GA (GMA, Mylan Pharmaceuticals, Inc.) at concentrations as indicated in Tables 16 and 17. A positive control was prepared by treating LN cells with 2.5 μg/mL concavalin A (ConA, a non-specific T cell stimulant). Myelin basic protein (MBP, 10 μg/mL) and enriched DCCM-1 medium served as negative controls. The cells from all groups each were stimulated with the same GA lot. Each reaction was set up in triplicate.
After incubation at about 37° C. in a humidified CO2 incubator for 6 hours, the cells were lysed for total RNA isolation. Total RNA was isolated from treated LN cells using SV 96 Total RNA Isolation System according to the manufacturer's protocol (Promega, Cat. #Z3500). Cells were washed once with Phosphate Buffered Saline (PBS) and lysed in RNA lysis buffer. The lysate was transferred to wells of the SV 96 binding plate. Samples were washed with RNA wash solution and treated with DNase. Total RNA was eluted with nuclease-free water from the binding plate.
After the reverse transcriptase reaction was completed, cDNA samples were used directly for real-time PCR to measure the response biomarker mRNA levels produced by the stimulated cells. […] All probes for target genes contained FAM dye, and probes for the internal control contained VIC®/MGB dye. Samples will be prepared and run in 96-well plates using a Real-Time PCR system (7500, Life Technologies). This system allows direct detection of PCR-product formation by measuring the increase in fluorescent emission continuously during the PCR reaction. A relative quantitation method was used to analyze changes in mouse IL-2, IL-4, IL-5, IL-10, IL-13, IFN-γ and TNF-α expression in GA-treated samples relative to the untreated control (enriched DCCM-1 treated) samples. The Real-Time PCR program was:
The levels of mouse cytokine amplicons (IL-2, IL-4, IL-5, IL-10, IL-13, mIFN-γ and TNF-α) were normalized to internal probe levels (GAPDH) from the same samples. The following equations were used to calculate the relative increase in response to GA stimulation compared to the control sample: ΔCT=CT_target−CT_reference ΔΔCT=−ΔCT_Treated−CT_VC

[2] = Group 1C: CD-1, GA-immunized, stimulation 10 μg/mL
[3] = Group 2C: BALB/cByJ, GA-immunized, stimulation 10 μg/mL
[4] = Group 3C: SJL/J, GA-immunized, stimulation 10 μg/mL
[5] = BALB/cByJ, immunized GA Intraplantar
[6] = BALB/cByJ, immunized GA Lower Limb
[7] = BALB/cByJ, immunized Mannitol Intraplantar
[8] = C57BL10J, immunized GA Intraplantar
[9] = C57BL10J, immunized GA Lower Limb
[10] = C57BL10J, immunized Mannitol Intraplantar
[11] = CD-1, immunized GA Intraplantar
[12] = CD-1, immunized Mannitol Intraplantar

Molecule	IL-10 mRNA Expression (IL-10 mRNA in LN cells; [2]) [fold change vs control]	IL-10 mRNA Expression (IL-10 mRNA in LN cells; [3]) [fold change vs control]	IL-10 mRNA Expression (IL-10 mRNA in LN cells; [4]) [fold change vs control]	IL-4 secretion response ratio (treated cell medium to control DCCM1 medium) [1, 5]	IL-4 secretion response ratio (treated cell medium to control DCCM1 medium) [1, 6]	IL-4 secretion response ratio (treated cell medium to control DCCM1 medium) [1, 7]	IL-4 secretion response ratio (treated cell medium to control DCCM1 medium) [1, 8]	IL-4 secretion response ratio (treated cell medium to control DCCM1 medium) [1, 9]	IL-4 secretion response ratio (treated cell medium to control DCCM1 medium) [1, 10]	IL-4 secretion response ratio (treated cell medium to control DCCM1 medium) [1, 11]	IL-4 secretion response ratio (treated cell medium to control DCCM1 medium) ([1]; CD-1, immunized GA Lower Limb)	IL-4 secretion response ratio (treated cell medium to control DCCM1 medium) [1, 12]	other results
L-glutamic acid polymer with L-alanine, L-lysine and L-tyrosine, acetate (salt) [GA]	0.9	1.3	0.8										IL-4 secretion, dose response to GA (in words) ([1]; BALB/cByJ cells): dose-dependent manner; IL-10 mRNA Expression (IL-10 mRNA in LN cells; Group 1C: CD-1, GA-immunized, stimulation 0.3 μg/mL): 0.7 fold change vs control; IL-10 mRNA Expression (IL-10 mRNA in LN cells; Group 1C: CD-1, GA-immunized, stimulation 1 μg/mL): 0.8 fold change vs control; IL-10 mRNA Expression (IL-10 mRNA in LN cells; Group 1C: CD-1, GA-immunized, stimulation 3 μg/mL): 0.9 fold change vs control; IL-10 mRNA Expression (IL-10 mRNA in LN cells; Group 2C: BALB/cByJ, GA-immunized, stimulation 0.3 μg/mL): 0.7 fold change vs control; IL-10 mRNA Expression (IL-10 mRNA in LN cells; Group 2C: BALB/cByJ, GA-immunized, stimulation 1 μg/mL): 1.0 fold change vs control; IL-10 mRNA Expression (IL-10 mRNA in LN cells; Group 2C: BALB/cByJ, GA-immunized, stimulation 3 μg/mL): 1.3 fold change vs control; IL-10 mRNA Expression (IL-10 mRNA in LN cells; Group 3C: SJL/J, GA-immunized, stimulation 0.3 μg/mL): 0.5 fold change vs control; IL-10 mRNA Expression (IL-10 mRNA in LN cells; Group 3C: SJL/J, GA-immunized, stimulation 1 μg/mL): 0.6 fold change vs control; IL-10 mRNA Expression (IL-10 mRNA in LN cells; Group 3C: SJL/J, GA-immunized, stimulation 3 μg/mL): 0.5 fold change vs control
Concanavalin A [ConA, reference compound]				46.47	75.33	24.71	3.26	4.85	3.14	9.86	4.91	3.36	IL-10 mRNA Expression (IL-10 mRNA in LN cells; Group 1C: CD-1, GA-immunized, stimulation 2.5 μg/mL): 0.4 fold change vs control; IL-10 mRNA Expression (IL-10 mRNA in LN cells; Group 2C: BALB/cByJ, GA-immunized, stimulation 2.5 μg/mL): 0.9 fold change vs control; IL-10 mRNA Expression (IL-10 mRNA in LN cells; Group 3C: SJL/J, GA-immunized, stimulation 2.5 μg/mL): 0.4 fold change vs control
B1	0.7	1.0	0.3	0.99	1.05	1.50	1.09	1.14	1.03	0.99	0.94	1.21	
